Measured values taken from ChEMBL document CHEMBL1201862, “PubChem BioAssay data set” (2004).
The source made the active and inactive calls. For most assays here, no stated cut-off is given here; in the data, actives have a measured EC50 and inactives only a lower limit.

Legend:
[1] = molecular target: T1, Rac GTPase-activating protein 1 (Homo sapiens, UniProt Q9H0H5); assay: blockers of MgcRacGAP-driven Rac1 GTP hydrolysis – biochemical, ADP Hunter fluorescence, primary and confirmatory, confirmation (AID 624330); format: functional
T1 sequence (Q9H0H5 whole entry): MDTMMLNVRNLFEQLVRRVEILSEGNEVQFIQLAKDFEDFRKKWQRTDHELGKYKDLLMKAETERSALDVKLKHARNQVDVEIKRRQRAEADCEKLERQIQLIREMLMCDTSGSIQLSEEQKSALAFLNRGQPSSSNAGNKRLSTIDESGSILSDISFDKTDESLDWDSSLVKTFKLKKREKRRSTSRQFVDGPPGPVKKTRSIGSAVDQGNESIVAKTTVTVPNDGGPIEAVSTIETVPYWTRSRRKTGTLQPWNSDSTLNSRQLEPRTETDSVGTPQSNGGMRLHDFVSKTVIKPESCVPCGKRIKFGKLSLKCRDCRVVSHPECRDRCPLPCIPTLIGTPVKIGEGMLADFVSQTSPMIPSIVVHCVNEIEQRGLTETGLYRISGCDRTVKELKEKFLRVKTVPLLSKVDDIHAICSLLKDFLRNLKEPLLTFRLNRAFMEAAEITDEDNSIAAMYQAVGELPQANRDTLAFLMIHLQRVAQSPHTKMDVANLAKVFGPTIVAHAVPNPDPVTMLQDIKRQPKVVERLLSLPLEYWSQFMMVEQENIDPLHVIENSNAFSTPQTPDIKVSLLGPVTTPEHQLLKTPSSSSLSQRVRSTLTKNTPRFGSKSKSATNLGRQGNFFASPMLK

[2] = loss of viability in HepG2 cells – cell-based, CellTiter-Glo, cherry-picked, cytotoxicity control for Shn3 inhibitor project, dose response (AID 624134); format: functional
[3] = reduction of Shn3 3'UTR-driven luciferase in osteoblasts – cell-based, Clone20 osteoblasts, firefly luciferase, cherry-picked, dose response (AID 624132); format: functional;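 further: firefly luciferase luminescence from reporter carrying the Shn3 3'UTR in osteoblasts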
[4] = non-specific 3'UTR reporter inhibition in Clone20-Shn3RL – cell-based, Renilla luciferase, cherry-picked, counter-screen for Shn3 inhibitor project, dose response (AID 624133); format: functional
[5] = system: INS1; assay: INS-1E survival protection against cytokine death – cell-based, luminescence, retest, dose response (AID 449756); format: functional; conditions: Rattus norvegicus;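 further: cell death triggered by IL-1 beta plus TNF-alpha plus IFN-gamma mixture; protective hits raise ATP signal compared with cytokine alone wells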
[6] = Luminescence Cell-Based Dose Confirmation HTS to Identify Activators of 5'UTR Stem-Loop Driven Alpha-Synuclein mRNA Translation in H4 Neuroglioblastoma Cells. [Related pubchem assays: 1829 (Project Summary), 1814 (Primary HTS)]; format: functional
[7] = system: H4; assay: Luminescence Cell-Based Dose Response HTS to Identify Activators of 5'UTR Stem-Loop Driven Prion Protein mRNA Translation in H4 Neuroglioblastoma Cells. [Related pubchem assays: 1829 (Project Summary), 1814 (Primary HTS)]; format: functional; conditions: Homo sapiens
[8] = Luminescence Cell-Based Dose Response HTS to Identify Activators of Luciferase Translation or Activity in H4 […] Cells. [Related pubchem assays: 1829 (Project Summary), 1814 (Primary HTS)]; format: functional
[9] = molecular target: Large T antigen (Simian virus 40, UniProt P03070); format: functional, Betapolyomavirus macacae;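 further: Confirmatory-stage PubChem screen for compounds that inhibit SV40 T antigen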
Chain of Large T antigen (P03070 whole entry): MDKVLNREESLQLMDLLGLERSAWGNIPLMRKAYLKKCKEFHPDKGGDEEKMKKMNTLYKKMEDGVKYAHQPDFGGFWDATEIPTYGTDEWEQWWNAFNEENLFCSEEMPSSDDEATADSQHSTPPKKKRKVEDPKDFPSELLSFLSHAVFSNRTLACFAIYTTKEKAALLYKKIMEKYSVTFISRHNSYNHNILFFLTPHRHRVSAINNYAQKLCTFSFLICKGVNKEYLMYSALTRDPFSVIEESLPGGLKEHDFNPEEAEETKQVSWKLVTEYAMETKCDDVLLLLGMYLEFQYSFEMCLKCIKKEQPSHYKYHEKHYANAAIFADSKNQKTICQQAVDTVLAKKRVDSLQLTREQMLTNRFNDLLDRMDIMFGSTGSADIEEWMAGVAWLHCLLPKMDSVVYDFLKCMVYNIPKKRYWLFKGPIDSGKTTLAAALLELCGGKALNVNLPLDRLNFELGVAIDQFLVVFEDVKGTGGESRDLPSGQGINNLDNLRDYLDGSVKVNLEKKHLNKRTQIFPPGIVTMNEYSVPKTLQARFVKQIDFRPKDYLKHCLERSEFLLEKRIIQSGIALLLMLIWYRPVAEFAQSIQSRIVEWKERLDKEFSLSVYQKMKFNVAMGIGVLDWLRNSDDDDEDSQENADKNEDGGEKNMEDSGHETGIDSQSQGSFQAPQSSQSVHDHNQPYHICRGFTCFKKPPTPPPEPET

[10] = NIH-3T3 fibroblast cytotoxicity, dose response, cytotoxicity control, cell-based, fluorescence, Alamar Blue, secondary assay (AID 2327); format: functional;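 further: NIH-3T3 mouse fibroblasts cultured with fluconazole at 8 µg/mL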
[11] = fluconazole-exposed Candida albicans growth modulators – fluorescence, retest, confirmation (AID 2467); format: functional, cell-based
[12] = Luminescence Cell-Based Dose Response HTS to Identify Inhibitors of 5'UTR Stem-Loop Driven Prion Protein mRNA Translation in H4 Neuroglioblastoma Cells. [Related pubchem assays: 1827 (Project Summary), 1813 (Primary HTS)]; format: functional
[13] = luciferase reporter signal suppression in cells – H4 neuroglioma cells, luminescence, dose response (AID 1990); format: functional, cell-based
[14] = alpha-synuclein stem-loop luciferase translation blockers – H4 neuroglioma cells, luminescence, confirmation (AID 1988); format: functional, cell-based
[15] = NIH3T3 cell viability loss – ATP luminescence, mouse fibroblasts, counter-screen, dose response (AID 2010); format: functional, cell-based;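 further: cells exposed to compound for about 90 hours before reading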
[16] = molecular target: T2, Corticotropin-releasing factor receptor 2/Corticotropin-releasing factor-binding protein (Homo sapiens, UniProt P24387+Q13324); assay: activators of CRF receptor 2 with binding protein – uHTS hits, confirmation (AID 602473); format: functional; conditions: read-out: EC50_Mean
T2 sequence (Q13324 whole entry): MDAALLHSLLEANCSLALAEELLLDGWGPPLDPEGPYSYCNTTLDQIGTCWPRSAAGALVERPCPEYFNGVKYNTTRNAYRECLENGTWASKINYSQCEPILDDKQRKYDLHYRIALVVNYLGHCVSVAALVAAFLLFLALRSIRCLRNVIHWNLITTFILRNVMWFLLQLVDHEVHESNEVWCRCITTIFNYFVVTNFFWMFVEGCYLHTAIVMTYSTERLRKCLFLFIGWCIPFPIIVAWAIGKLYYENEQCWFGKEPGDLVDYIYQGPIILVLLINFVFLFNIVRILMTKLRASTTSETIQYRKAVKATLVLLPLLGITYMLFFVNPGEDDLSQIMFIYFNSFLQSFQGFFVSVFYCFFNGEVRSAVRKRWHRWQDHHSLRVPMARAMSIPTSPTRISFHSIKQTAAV
T2 sequence (P24387 whole entry): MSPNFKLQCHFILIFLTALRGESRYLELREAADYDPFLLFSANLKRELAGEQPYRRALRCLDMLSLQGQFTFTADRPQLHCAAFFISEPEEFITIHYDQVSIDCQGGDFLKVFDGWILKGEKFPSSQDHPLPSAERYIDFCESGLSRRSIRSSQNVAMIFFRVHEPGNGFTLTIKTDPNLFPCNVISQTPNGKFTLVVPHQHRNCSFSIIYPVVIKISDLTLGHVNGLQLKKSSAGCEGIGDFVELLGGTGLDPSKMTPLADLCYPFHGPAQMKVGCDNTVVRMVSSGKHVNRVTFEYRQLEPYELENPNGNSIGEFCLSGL

[17] = Trypanosoma cruzi growth suppression in host cells – NIH3T3 host cells, beta-gal luminescence, confirmation (AID 2044); format: functional, cell-based;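 further: intracellular parasites grown in NIH/3T3 mouse fibroblasts as host cells; luminescent beta-galactosidase reporter signal from transgenic T. cruzi replicating inside host cells; inhibitors lower the luminescence signal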

O=c1c2ccccc2nc(/C=C/c2ccc(O)cc2)n1-c1ccccc1O
IC50 [1]: 62.5 µM (active)

Cc1ccc(NC(=O)Cc2nn(C)c(=O)c3ccccc23)cc1F
AC50 [2]: 3.46 µM (active) | AC50 [3]: 0.73 µM (active) | AC50 [4]: 2.3 µM (active) | AC50 [5]: 3.98 µM (active)

Oc1nc(COc2ccc(Cl)cc2Cl)nc2ccccc12
EC50 [6]: 0.125 µM (active) | EC50 [7]: 0.148 µM (active) | EC50 [8]: 0.107 µM (active)

Cc1cc(-c2cc(C)c(N)c(C)c2)cc(C)c1N
IC50 [1]: 10.8 µM (active)

CC(C)C(OC(=O)c1ccccc1)c1nccc2ccccc12 (centres undefined)
EC50 [6]: 21.5 µM (active) | EC50 [7]: 39.5 µM (active) | EC50 [8]: 17.8 µM (active)

CCc1ccc(OC(=O)Nc2ccccc2)cc1
EC50 [6]: 6.4 µM (active) | EC50 [7]: 7.7 µM (active) | EC50 [8]: > 120 µM (not active)

CCN(CC)S(=O)(=O)c1cccc(NC(=O)CNC2CCCCCC2)c1
IC50 [1]: 185 µM (active)

Nc1ccc(N=Nc2ccc(N)cc2)cc1
IC50 [1]: 22 µM (active)

O=C(Nc1ccc(-c2cn3c(n2)SCC3)cc1)c1ccc2ccccc2n1
EC50 [6]: 15.5 µM (active) | EC50 [7]: 16.8 µM (active) | EC50 [8]: 24 µM (active)

CN(C)/C=C(\C#N)C(=O)Nc1ccc(O)cc1F
IC50 [9]: 17.6 µM (active)

Cc1ccc(-c2c[n+](-c3ccc(OC(F)F)cc3)c3n2CCCCC3)cc1
EC50 [10]: > 150 µM (inconclusive) | EC50 [11]: > 38 µM (not active) | AC50 [5]: 1.52 µM (active)

CCS(=O)(=O)C1=NN2C(=N)/C(=C\c3ccc(OC(=O)c4ccco4)c(Br)c3)C(=O)N=C2S1
IC50 [9]: > 100 µM (active)

Cc1cc(NC(=O)c2cccnc2)ccc1NC(=O)c1cc2ccccc2o1
EC50 [12]: 17.7 µM (active) | EC50 [13]: 18.6 µM (active) | EC50 [14]: 20.6 µM (active)

Cc1nnsc1-c1c(C(=O)Oc2ccccc2)c(C)nn1-c1ccccc1
EC50 [12]: > 120 µM (not active) | EC50 [13]: 18.8 µM (active) | EC50 [14]: 19.8 µM (active)

O=C(Nc1ncc(S(=O)(=O)c2ccc([N+](=O)[O-])cc2)s1)c1cccc2ccccc12
EC50 [15]: > 60 µM (not active) | EC50 [16]: 4.23 µM (active) | EC50 [17]: 0.221 µM (active)

CC(C)OC(=O)Cn1nnc2c(cnn2-c2ccccc2)c1=O
EC50 [6]: 13.4 µM (active) | EC50 [7]: 20.7 µM (active) | EC50 [8]: 13.1 µM (active)

OCC1CCCN(C(=S)Nc2ccc(Nc3ccccc3)cc2)C1 (centres undefined)
IC50 [1]: 41.8 µM (active) | IC50 [9]: 8.16 µM (active)

Cc1ccc(Nc2nc(=O)c3cccnc3s2)cc1
EC50 [7]: > 120 µM (not active) | EC50 [8]: 2.71 µM (active)

CC(=O)OCC1OC(n2cc(F)c(=O)[nH]c2=O)C(OC(C)=O)C1OC(C)=O (centres undefined)
EC50 [6]: > 120 µM (not active) | EC50 [7]: > 120 µM (not active) | EC50 [8]: 117 µM (active)

Cc1nn(-c2ccccn2)c2c1-c1nc(N)ncc1CC2
EC50 [6]: 12.3 µM (active) | EC50 [8]: 1.98 µM (active)

CCOC(=O)c1ccc(NCn2c(=O)oc3ccccc32)cc1
EC50 [16]: > 53 µM (inactive)

c1ccc(-c2cn(CC3CCCCC3)nn2)cc1
EC50 [6]: 0.146 µM (active) | EC50 [7]: > 120 µM (inconclusive) | EC50 [8]: 0.236 µM (active)

O=C(c1cc(-c2ccc3c(c2)OCO3)on1)N1CCCCC1
EC50 [12]: 10.3 µM (active) | EC50 [14]: 7.22 µM (inconclusive)

Nc1ccc(Nc2ccccc2)c(Cl)c1
IC50 [1]: 17.3 µM (active)

Cc1ccc(-n2nnnc2-c2cnc(-c3cccnc3)nc2C(F)(F)F)cc1
AC50 [2]: 57.4 µM (active) | AC50 [3]: 5.89 µM (active) | AC50 [4]: 23 µM (active)

COc1ccc(COc2ccccc2C(=O)NCc2ccccc2)cc1F
AC50 [2]: 52.4 µM (active) | AC50 [3]: 4.76 µM (active) | AC50 [4]: 10.1 µM (active)

CN1CN(C)c2cccc3cccc1c23
IC50 [9]: 73.9 µM (active)

Cn1c2ccccc2c2cc(C(=O)N3CCN(CCO)CC3)sc21
EC50 [6]: > 120 µM (not active) | EC50 [7]: 33.8 µM (active) | EC50 [8]: 15.3 µM (active)

CCCCCn1c(=O)c(C(=O)NC(C)c2ccccc2)c(O)c2ccccc21 (centres undefined)
AC50 [2]: > 70 µM (inactive) | AC50 [3]: 11.7 µM (active) | AC50 [4]: 6.26 µM (active) | AC50 [5]: 5.84 µM (active)

O=C(CN1CCN(c2ccc(O)cc2)CC1)NC(=O)NCc1ccco1
IC50 [1]: 52.6 µM (active)

C[C@H](NC(=O)c1[nH]cnc1C(=O)NCc1ccc(CNC(=O)OC(C)(C)C)cc1)c1ccccc1
AC50 [2]: > 70 µM (inactive) | AC50 [3]: 11.7 µM (active) | AC50 [4]: 14.9 µM (active)

COc1ccccc1CNc1nc(NCc2ccccc2OC)c2sccc2n1
AC50 [2]: 22.1 µM (active) | AC50 [3]: 6.33 µM (active) | AC50 [4]: 9.79 µM (active)

C=C1C(=O)C23C(O)C1CCC2C12COC3(O)C(O)C1C(C)(C)CCC2O (centres undefined)
AC50 [3]: 3.3 µM (active) | AC50 [4]: 8.14 µM (active)

CC(C)CC(NC(=O)c1ccccc1)C(=O)N/N=C/c1ccco1 (centres undefined)
EC50 [16]: 4.81 µM (active)

COc1cccc(/C=N/NC(=O)c2[nH]nc3c2CCc2ccccc2-3)c1
EC50 [6]: > 120 µM (not active) | EC50 [7]: > 120 µM (not active) | EC50 [8]: > 60 µM (not active)

O=C(NCCNCC(O)COc1ccc(O)cc1)N1CCOCC1 (centres undefined)
IC50 [1]: 118 µM (active)

Clc1ccccc1CNCc1ccc2c(c1)OCO2
IC50 [1]: 257 µM (active)

COc1ccc(-c2cc3ccc(OCc4nn[nH]n4)cc3oc2=O)cc1
EC50 [12]: 14.6 µM (active) | EC50 [13]: 13.9 µM (active) | EC50 [14]: 13.3 µM (active)

O=c1[nH]c(=O)c2nnc(N/N=C\c3ccc(O)cc3)nc2[nH]1
IC50 [9]: 16.8 µM (active)

c1ccc(CNc2ncnc3c2ncn3C2CCCCO2)cc1 (centres undefined)
EC50 [6]: 5.99 µM (active) | EC50 [7]: > 120 µM (not active) | EC50 [8]: 4.67 µM (active)
